Data published in patent publication US20160103122A1, “METHOD FOR THE CREATION OF A DATABASE FOR INITIAL ASSESSMENT OF THE EFFECTIVENESS OF ACTIVE AGENTS IN TUMOR THERAPY” (FLACOD GMBH, priority 2013, published 2016).
Several values for one entry are separate records, joined by “and”; a condition that tells them apart may be missing. Identical values can stand only once. Like-named read-outs stand apart in the source and are kept apart here.

How the values were obtained:
[1] = system: bronchial carcinoma (lung cancer); test: Therapy outcome of chemotherapy in patients, assessed by computer tomography after two to three cycles; assay type: in vivo, human; design: key: PR=partial response (i.e. the carcinoma has become detectably smaller); NC=“No Change”=zero growth of the carcinoma; Progress=the carcinoma has continued to grow, no therapeutic success; settings: patient tumor ID 282, NSCLC/St. IV; without platinum derivatives
From the text: The therapy outcome, namely the change or the state of the tumor after two to three cycles of treatment compared to the state before the start of treatment, has been analyzes by computer tomography and classified on the basis of the “standard”—rating scale known and conventional in the art as class I=complete remission (CR), class II=partial remission (PR), class III=zero growth (“no change”, NC) and class IV=Progress (progressive tumor growth). The therapy outcomes achieved are shown in table 1, column 5 and in table 2 in column 3 of each group (1 to 4).

[2] = system: tumor cells of lung cancer (bronchial carcinoma) tissue samples; test: Chemosensitivity test (IC50 determination) by colony formation in tumor digests ex vivo; assay type: cell-based, human
Protocol: Parts of freshly (under general anesthesia of the patient) taken (here biopsied) lung cancer (bronchial carcinoma) tissue were transported to the laboratory and processed immediately for IC50 determination.
The transport to the laboratory should take place in chilled culture medium. For this purpose in particular HEPES- and NaHCO3-buffered, preferably flavin-free RPMI 1640 culture medium containing 10% fetal bovine serum, 100 IU/mL penicillin G, 100 ug/mL streptomycin, 20 μg/mL Amikacin (as antibiotics) and […] Voriconazole (as an antifungal agent) are suitable.
In the laboratory, this tumor tissue samples were cleaned, weighed, minced and suspended in culture medium.
For this purpose in particular the method according to DE 102012003700 B3 is suitable, wherein about 5.5 mg tumor tissue sample per 1 mL of culture medium are subjected to enzymatic digestion with collagenase, preferably by using Clostridium histolytikum collagenase (Sigma, 230 CDU/mL), in a Petri dish under standard conditions in a gassing incubator (36-37° C., 3.5% CO2 in water vapor saturated air) for 4-5 hours.
Following the collagenase digestion, the digestion product is centrifuged at 50×g, the supernatant is discarded and the pellet is resuspended in 1 mL of fresh culture medium. With this resuspension—hereinafter referred to as “tumor digest”—the chemosensitivity test (IC50 determination) is performed
The thus prepared culture plates were pre-incubated for about 1 hour under standard conditions (i.e.: gassing incubator; 36-37° C.; 3.5% CO2 in water vapor saturated air). Subsequently, 150 μl tumor digest were added to these pre-incubated wells, they were incubated for 72 hours under standard conditions (see above), and then analyzed microscopically.
After the end of incubation, in all tumor digest test preparations the culture medium was removed, and the existing cell colonies were rinsed with phosphate buffered saline (PBS) and drained. Subsequently, the cells were fixed with methanol at minus (−) 25° C. for 5 to 10 minutes and then subjected to Giemsa staining according to Gurr.

[3] = system: lung adenocarcinoma cell strain A240286S; test: Verification test of cisplatin concentrations by IC50 determination (cell counting); assay type: cell-based, human; settings: 72 hours; 15 evaluable test preparations; read-out: IC50-values of A240286S cells in the verification tests, average
Protocol: The final concentration gradients were pre-incubated for approximately 30 minutes under standard conditions (see above). […] The culture plate was then incubated, in parallel with the culture plate fitted with the tumor digests, for 72 hours under standard conditions. In the batches of the verification test (with the cells of the lung adenocarcinoma cell strain A240286S) the culture medium was decanted after the end of incubation. The present cellular layers were rinsed with PBS, drained and then removed from the culture vessel with Accutase. The cells were isolated by passing them through a blunt cannula no. 20. Using a cell-counting-and-analyzing apparatus (here the Casy I Cell Analyzer from Roche, Basel), the cell density was determined for each test batch and reduced by the inoculum.

Nc1ccn([C@@H]2O[C@H](CO)[C@@H](O)C2(F)F)c(=O)n1 [Gemcitabine]
Therapy outcome [1]: Progress

N.N.[Cl][Pt][Cl] [cisplatin]
IC50 ([2]; Group 1 (IC50 < 5 μM), 3 tumor samples, read-out: IC50 mean value): 3.64 µM | IC50 ([2]; Group 2 (IC50 ≧ 5 < 8 μM), 7 tumor samples, read-out: IC50 mean value): 6.73 µM and 6.72 µM | IC50 ([2]; Group 3 (IC50 ≧ 8 bis 25.6 μM), 5 tumor samples, read-out: IC50 mean value): 21.1 µM | IC50 ([2]; tumor sample ID 220, SCLC/St. IV, 72 hours, colonies of epithelial tumor cells, read-out: IC50): 2.6 µM | IC50 ([2]; tumor sample ID 221, NSCLC/St. IV, 72 hours, read-out: IC50): 7.77 µM | IC50 ([2]; tumor sample ID 228, NSCLC/St. IV, 72 hours, read-out: IC50): > 26 µM | IC50 ([2]; tumor sample ID 233, NSCLC/St. IV, 72 hours, read-out: IC50): > 26 µM | IC50 ([2]; tumor sample ID 245, NSCLC/St. IV, 72 hours, read-out: IC50): 7.74 µM | IC50 ([2]; tumor sample ID 255, SCLC/St. IV, 72 hours, read-out: IC50): 4.58 µM | IC50 ([2]; tumor sample ID 258, NSCLC/St. IV, 72 hours, read-out: IC50): 16.7 µM | IC50 ([2]; tumor sample ID 260, NSCLC/St. IIIb, 72 hours, read-out: IC50): 5.61 µM | IC50 ([2]; tumor sample ID 272, SCLC/St. IV, 72 hours, read-out: IC50): 21 µM | IC50 ([2]; tumor sample ID 275, NSCLC/St. IV, 72 hours, read-out: IC50): 5.38 µM | IC50 ([2]; tumor sample ID 277, NSCLC/St. IIIa, 72 hours, read-out: IC50): 7.58 µM | IC50 ([2]; tumor sample ID 278, NSCLC/St. IV (adenocarcinoma), 72 hours, read-out: IC50): 5.25 µM | IC50 ([2]; tumor sample ID 279, NSCLC/St. IV (squamous cell carcinoma), 72 hours, read-out: IC50): 3.73 µM | IC50 ([2]; tumor sample ID 282, NSCLC/St. IV, 72 hours, read-out: IC50): 14.8 µM | IC50 ([2]; tumor sample ID 294, NSCLC/St. IV, 72 hours, read-out: IC50): 7.7 µM | IC50 ([2]; tumor sample ID 297, NSCLC/St. IV, 72 hours, read-out: IC50): 25.6 µM | IC50 ([2]; tumor sample ID 311, NSCLC/KI. IIIb, 72 hours, read-out: IC50): 22.1 µM | IC50 ([2]; tumor sample ID 314, NSCLC/KI. IV, 72 hours, read-out: IC50): 20.5 µM | IC50 [3]: 1.2 µM
